We go through ten compounds from BindingDB's records for doi:10.1021/jm00034a005 (University of Paris, 1994).

This assay addresses Neprilysin. The assay can be described thus: In vivo inhibitory potency against neutral endopeptidase by displacement of [3H]HACBOGly binding in mouse kidney.
What is called IC50 is the concentration that gives 50% inhibition. A low value points to higher potency. Turning to `CC(c1ccc(O)cc1)C(CS)C(=O)NC(Cc1ccc(O)cc1)C(=O)O` (stereo not given) [3-(4-Hydroxy-phenyl)-2-[3-(4-hydroxy-phenyl)-2-mercaptomethyl-butyrylamino]-propionic acid], the IC50 worked out at 9 nM. Consider `CC(c1ccccc1)C(CS)C(=O)NC(COCc1ccccc1)C(=O)O` (stereo not given) [3-Benzyloxy-2-(2-mercaptomethyl-3-phenyl-butyrylamino)-propionic acid], for which the IC50 came out at 4 nM. `O=C(NC(Cc1ccc(O)cc1)C(=O)O)C(CS)Cc1ccccc1` (stereo not given) [3-(4-Hydroxy-phenyl)-2-(2-mercaptomethyl-3-phenyl-propionylamino)-propionic acid] gave an IC50 of 2 nM. For the compound `CC(NC(=O)C(CS)C(C)c1ccc2c(c1)OCO2)C(=O)O` (stereo not given) [2-(3-Benzo[1,3]dioxol-5-yl-2-mercaptomethyl-butyrylamino)-propionic acid], the concentration for half-maximal inhibition (IC50) came to 2 nM. Consider `CC(NC(=O)C(CS)C(C)c1ccc(F)cc1)C(=O)O` (stereo not given) [2-[3-(4-Fluoro-phenyl)-2-mercaptomethyl-butyrylamino]-propionic acid], for which the IC50 was determined as 2 nM. Compound `CC(NC(=O)C(CS)C(C)c1ccc(F)c(F)c1)C(=O)O` (stereo not given) [2-[3-(3,4-Difluoro-phenyl)-2-mercaptomethyl-butyrylamino]-propionic acid] registered an IC50 of 3.5 nM.

In the case of `CCC(NC(=O)C(CS)C(C)c1ccccc1)C(=O)O` (stereo not given) [2-(2-Mercaptomethyl-3-phenyl-butyrylamino)-butyric acid], the IC50 stood at 6.3 nM. With `CC(c1ccc(N)cc1)C(CS)C(=O)NC(Cc1ccc(O)cc1)C(=O)O` (stereo not given) [2-[3-(4-Amino-phenyl)-2-mercaptomethyl-butyrylamino]-3-(4-hydroxy-phenyl)-propionic acid] the figure was 16 nM.

For `CC(c1ccc(F)cc1)C(CS)C(=O)NC(Cc1ccc(O)cc1)C(=O)O` (stereo not given) [2-[3-(4-Fluoro-phenyl)-2-mercaptomethyl-butyrylamino]-3-(4-hydroxy-phenyl)-propionic acid], the IC50 stood at 5.9 nM.

Compound `CC(c1ccc(F)c(F)c1)C(CS)C(=O)NC(Cc1ccc(O)cc1)C(=O)O` (stereo not given) [2-[3-(3,4-Difluoro-phenyl)-2-mercaptomethyl-butyrylamino]-3-(4-hydroxy-phenyl)-propionic acid] had an IC50 of 5.2 nM.
